From PMC7856178 (Archives of biochemistry and biophysics, 2020)
Values joined by “and” are separate entries in the source; they are usually repeats but may differ in a detail not shown here. Equal entries are not always repeated. Where two headings read alike, the source gives them in different places.

How the values were obtained:
CYP2E1 [1] = target: CYP2E1 (Homo sapiens, UniProt P05181); assay type: binding
CYP3A4 [2] = target: T1, CYP3A4 (Homo sapiens, UniProt P08684); assay type: binding; conditions: SS(3A4) in the presence of 25 μM ANF
Target sequence in this assay (P08684 2-503 limits assumed): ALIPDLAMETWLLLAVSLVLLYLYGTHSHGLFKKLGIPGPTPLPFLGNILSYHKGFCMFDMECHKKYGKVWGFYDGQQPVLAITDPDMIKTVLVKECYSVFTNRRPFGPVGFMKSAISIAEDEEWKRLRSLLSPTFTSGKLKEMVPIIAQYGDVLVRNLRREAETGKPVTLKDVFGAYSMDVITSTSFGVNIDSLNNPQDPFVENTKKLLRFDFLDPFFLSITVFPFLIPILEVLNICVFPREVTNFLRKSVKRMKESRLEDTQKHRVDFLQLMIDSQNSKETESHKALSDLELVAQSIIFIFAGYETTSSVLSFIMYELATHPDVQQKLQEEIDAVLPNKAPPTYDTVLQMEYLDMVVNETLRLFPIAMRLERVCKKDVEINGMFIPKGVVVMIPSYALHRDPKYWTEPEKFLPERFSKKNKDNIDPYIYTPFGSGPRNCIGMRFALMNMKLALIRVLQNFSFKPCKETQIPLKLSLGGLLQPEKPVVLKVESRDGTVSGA

CYP3A4 [3] = target: T1, CYP3A4; test: Fluorimetric assay of BQ debenzylation in intact and CYP2E1-enriched HLM
Target sequence in this assay (P08684 whole entry): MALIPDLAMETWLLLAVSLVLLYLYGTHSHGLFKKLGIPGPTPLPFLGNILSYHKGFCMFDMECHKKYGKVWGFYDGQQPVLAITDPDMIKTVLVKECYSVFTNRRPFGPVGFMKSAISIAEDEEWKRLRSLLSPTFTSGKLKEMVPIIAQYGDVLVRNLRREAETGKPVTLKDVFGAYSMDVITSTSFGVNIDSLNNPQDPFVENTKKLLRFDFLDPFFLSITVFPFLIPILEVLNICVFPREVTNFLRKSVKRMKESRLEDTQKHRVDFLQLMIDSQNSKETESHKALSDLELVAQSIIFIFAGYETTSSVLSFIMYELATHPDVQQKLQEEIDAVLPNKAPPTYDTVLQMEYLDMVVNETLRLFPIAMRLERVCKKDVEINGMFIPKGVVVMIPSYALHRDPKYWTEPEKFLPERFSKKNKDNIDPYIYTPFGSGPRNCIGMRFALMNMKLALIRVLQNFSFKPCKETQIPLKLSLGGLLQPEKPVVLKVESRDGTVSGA

CYP2C19 = conditions: cited from earlier work
CYP2E1 [4] = conditions: cited from earlier work
CYP3A5 = conditions: cited from earlier work
CYP1A2 = conditions: cited from earlier work
CYP3A4 [5] = target: T1, CYP3A4; test: Rate of midazolam hydroxylation by pooled HLM; conditions: 100 μM substrate; for Turnover rate (per metabolizing P450 enzyme): per CYP3A4
Target sequence in this assay (P08684 whole entry): as above

[6] = in vivo; cited from earlier work
CYP3A4 [7] = conditions: prolonged exposure; human hepatocytes; cited from earlier work
CYP3A4 [8] = conditions: prolonged exposure; HepG2 cells; cited from earlier work
[9] = 25 μM ANF, all four HLM samples

## O[C@@H](CS)[C@@H](O)CS (racemic) [DTT, dithiothreitol]
CYP2E1 [1]
  Kd: 10.4 mM

## O=c1cc(-c2ccccc2)oc2c1ccc1ccccc12 [ANF, 7,8-benzoflavone]
CYP3A4 [2]; calculated from [CYP2E1]50%
  (Lipid/CYP2E1)50%: 604 and 604 ± 62
CYP3A4 [2]; from Rmax by Eq. 4
  FRET Efficiency: 84 ± 20%
CYP3A4 [3]; 25 μM ANF, HLM-A
  Effect of ANF on Vmax of BQ metabolism: no statistically significant effect
CYP3A4 [3]; 25 μM ANF, HLM-N1
  Effect of ANF on the maximal rate of BQ metabolism: increased the maximal rate of reaction almost two times
CYP3A4 [3]; 25 μM ANF, HLM-N2
  Effect of ANF on Vmax of BQ metabolism: no statistically significant effect
CYP3A4 [3]; 25 μM ANF, HLM-N3
  Effect of ANF on the maximal rate of BQ metabolism: over two-fold inhibition
CYP3A4 [3]; [9]
  Effect of ANF on S50 values of BQ: considerably decreased the S50 values
  Effect of ANF on homotropic cooperativity observed with BQ: eliminated homotropic cooperativity

## CN(C)CCC=C1c2ccccc2CCc2ccccc21 [Amitriptyline]
CYP2C19
  Km: ~14 µM

## c1ccc(COc2ccc3cccnc3c2)cc1 [BQ, 7-benzyloxyquinoline]
CYP2E1 [4]
  Ability of CYP2E1 to metabolize BQ: lacks any potential to metabolize this substrate
CYP3A5
  Turnover number with BQ, times lower than that of CYP3A4: 4.3 times
CYP3A4 [3]; HLM-A+2E1 (1:1 CYP2E1-enriched), +25 μM ANF
  N (Hill coefficient): 0.85 ± 0.26 (0.03)
CYP3A4 [3]; HLM-A+2E1 (1:1 CYP2E1-enriched), no effector
  N (Hill coefficient): 1.47 ± 0.30 (0.30)
CYP3A4 [3]; HLM-A, +25 μM ANF
  N (Hill coefficient): 0.99 ± 0.20 (0.03)
CYP3A4 [3]; HLM-A, no effector
  N (Hill coefficient): 1.02 ± 0.15
CYP3A4 [3]; HLM-N1+2E1 (1:1 CYP2E1-enriched), +25 μM ANF
  N (Hill coefficient): 0.87 ± 0.16 (0.02)
CYP3A4 [3]; HLM-N1+2E1 (1:1 CYP2E1-enriched), no effector
  N (Hill coefficient): 1.26 ± 0.12 (0.01)
CYP3A4 [3]; HLM-N1, +25 μM ANF
  N (Hill coefficient): 0.83 ± 0.12 (<10^−2)
CYP3A4 [3]; HLM-N1, no effector
  N (Hill coefficient): 2.24 ± 0.37
CYP3A4 [3]; HLM-N2+2E1 (1:1 CYP2E1-enriched), +25 μM ANF
  N (Hill coefficient): 0.86 ± 0.08 (<10^−2)
CYP3A4 [3]; HLM-N2+2E1 (1:1 CYP2E1-enriched), no effector
  N (Hill coefficient): 1.13 ± 0.03 (<10^−6)
CYP3A4 [3]; HLM-N2, +25 μM ANF
  N (Hill coefficient): 1.02 ± 0.37 (0.01)
CYP3A4 [3]; HLM-N2, no effector
  N (Hill coefficient): 1.92 ± 0.02
  Vmax, times lower than that of HLM-A: 2.2 times
CYP3A4 [3]; HLM-N3+2E1 (1:1 CYP2E1-enriched), +25 μM ANF
  N (Hill coefficient): 1.02 ± 0.24 (0.07)
CYP3A4 [3]; HLM-N3+2E1 (1:1 CYP2E1-enriched), no effector
  N (Hill coefficient): 1.28 ± 0.09 (0.01)
CYP3A4 [3]; HLM-N3, +25 μM ANF
  N (Hill coefficient): 1.22 ± 0.30 (0.03)
CYP3A4 [3]; HLM-N3, no effector
  N (Hill coefficient): 2.09 ± 0.44
  Vmax, times lower than that of HLM-A: 1.4 times
CYP3A4 [3]; all three samples of HLM-N, no effector
  Hill coefficient: 1.9 – 2.2
CYP3A4 [3]; no effector
  Vmax of HLM-A relative to HLM-N1: over six times higher
CYP1A2
  Turnover number with BQ, times lower than that of CYP3A4: 8.5 times

## Cc1ncc2n1-c1ccc(Cl)cc1C(c1ccccc1F)=NC2 [Midazolam]
CYP3A4 [5]; HLM-A
  Turnover rate (per CPR): 11.2 ± 5.3 min⁻¹
  Turnover rate (per metabolizing P450 enzyme): 6.8 ± 3.2 min⁻¹
CYP3A4 [5]; HLM-N2
  Turnover rate (per CPR): 7.3 ± 2.1 min⁻¹
  Turnover rate (per metabolizing P450 enzyme): 3.3 ± 0.9 min⁻¹
CYP3A4 [5]; HLM-N3
  Turnover rate (per CPR): 8.2 ± 4.0 min⁻¹
  Turnover rate (per metabolizing P450 enzyme): 3.1 ± 1.5 min⁻¹

## C[C@H]1c2cccc(O)c2C(O)=C2C(=O)[C@]3(O)C(O)=C(C(N)=O)C(=O)[C@@H](N(C)C)[C@@H]3[C@@H](O)[C@@H]21 [doxycyclin]
[6]
  Rate of metabolism under the influence of chronic alcohol exposure: increased rate of metabolism

## CCO [ethanol]
CYP3A4 [7]
  Concentration of ethanol giving a noticeable elevation in the CYP3A4 content: ≥ 50000 µM
CYP3A4 [8]
  Concentration of ethanol giving a noticeable elevation in the CYP3A4 content: ≥ 50000 µM
